Reference: patent US20240400986A1, “MEMBRANE BOUND COMPOSITIONS AND METHODS RELATING TO SAME” (FLAGSHIP PIONEERING INNOVATIONS VII, LLC, priority 2021, published 2024)
Peptide text beside a SMILES is read from it. * marks the point of attachment. Cbz = O=C(OCc1ccccc1)*

Columns and labels:
neuronal cells [1] = experiment: Gigasome-mediated extraction of APP-CTFs upon γ-secretase and proteasome inhibition (fixed plates, confocal); type: cell-based, human
Description: Cells were treated with the γ-secretase inhibitor L-685,458 at 5 μM, either alone or in combination with the proteasome inhibitor MG-132 at 0.1 μM. A vehicular control amount of DMSO was added to the media to comparatively study cargo signals within cells and gigasomes. Treatments were carried out in reduced serum-containing media (3% FBS) for 24 hours. Disease-related cargo presence within cells and in gigasomes was characterized and quantified by confocal microscopy analysis of 4% paraformaldehyde fixed cells, following (immuno)fluorescent labeling of cytosolic, nuclear and cargo-specific protein markers. In some experiments β-III tubulin and Alexa Fluor® 488 phalloidin were used to mark the cytosol and proximal plasma membrane, respectively. To detect APP-CTFs, an antibody against the C-terminus of APP (C-APP) was used (see Table 12). Non-specific labeling was blocked by incubation with 5% normal goat serum in PBS in the presence of 0.05% saponin, for 1 h at room temperature. Primary antibodies were incubated overnight at 4° C., followed by incubation with Alexa Fluor®-conjugated secondary antibodies for 1 hour at room temperature. Nuclei were counterstained with DAPI.
A range of 5-8 images per well were taken from replicate experiments to capture a final total range of 150-200 cells. […] The cellular cargo fluorescence intensity in the red channel was quantified by subtracting the background signal from each image, using the ImageJ built-in “subtract background” function with a default rolling ball radius of 50 pixel. The cargo signal (integrated density) in the red channel was measured and normalized to the number of nuclei counted in each field. […]
For particle analysis, the cytosolic and F-actin/membrane signals were merged into single RGB image, converted to grayscale and then thresholded to create a cellular mask of objects in the field of view, as calculated by the “Li” autothreshold algorithm. […] The quantity or distribution of objects obtained from the particle analysis was divided by the number of cells counted in each field to obtain a normalized quantity or distribution.

neuronal cells [2] = experiment: Gigasome-mediated extraction of exogenously added Tau fibrils (live plated cells and culture media); type: cell-based, human
Description: P301S mutant Tau fibrils conjugated to the fluorescent probe ATTO 488 (Table 12) were resuspended at 50 nM in reduced serum-containing media and added to half of the cell-containing wells for 3 hours at 37° C. Following Tau fibrils uptake, cells were trypsinized to remove excess Tau fibrils attached to the cell surface, labeled with Hoechst 33342 to visualize nuclei and CellTracker Orange to visualize the cytoplasm and plated in a new poly-L-lysine-coated 24-well glass bottom plates. Cells were allowed to attach (2-3 hours), before addition of 0.1 μM MG-132 in reduced serum-containing media for additional 18-20 h.
For analysis, 10-15×16-bit images per well were captured with a 20× objective and processed for analysis of gigasome production. Composite images were separated in the different channels. The background was subtracted from the green Tau fibrils cargo channel, as described Example 13.a and the signal thresholded using the “Yen” autothreshold algorithm. The cargo signal (integrated density) in the green channel was measured and normalized to the number of nuclei counted in each field in the Tau-F conditions. […] The quantity or distribution of objects obtained from the particle analysis was divided by the number of cells counted in each field to obtain a normalized quantity or distribution. […]

[3] = system: neuronal cell line derived from human neuroblastoma; experiment: Small molecule compound screen of gigasome production in neuronal monocultures
neuronal cells [4] = experiment: Gigasome-mediated extraction of stress granule-associated protein HuR (fixed plates, confocal); type: cell-based, human
Description: For this paradigm, cells were treated with a low sodium arsenite concentration of 5 μM either alone or in combination with the proteasome inhibitor MG-132 at 0.2 μM. A vehicular control amount of DMSO was added to the media to comparatively study cargo signals within cells and gigasomes. Treatments were carried out in reduced serum-containing media for 24 hours to mimic a chronic exposure to arsenite. The presence of the stress-granule-related cargo within cells and in gigasomes was characterized and quantified by confocal microscopy analysis of 4% paraformaldehyde. Non-specific labeling was blocked by incubation with 5% normal goat serum in PBS in the presence of 0.1% Triton X-100, for 2 h at room temperature, followed by immunolabeling with an antibody against the RNA-binding protein HuR (see Table 12) and incubation with Alexa Fluor® 568 secondary antibodies. Phalloidin Alexa Fluor® 488 was used to mark the proximal plasma membrane. Nuclei were counterstained with DAPI.
Images were captured using a Zeiss LSM 900 confocal microscope and a 40× objective. For analysis, 10×16-bit images per well were processed to obtain a final total range of 75-200 cells. Composite images were separated in the different channels. The background was subtracted from the red cargo-related channel, as described in Example 13a. The nuclear signal in the blue channel was thresholded using the “Yen” autothreshold algorithm. To measure the nuclear-to-cytosolic translocation of the stress-granule-related protein cargo upon treatment, firstly, the cargo-related nuclear signal was subtracted from the respective red channel image by creating a nuclear selection from the thresholded blue channel image, which was added to ImageJ Manager. The nuclear selection was then transferred to the background-subtracted red channel and the nuclear cargo signal was removed from the image leaving only the cytosolic signal. The cleared red channel image was thresholded using the “default” autothreshold algorithm for downstream particle analysis. To measure the cytosolic cargo signal, a cellular mask was then generated by thresholding the Green/F-actin channel using the “Li” autothreshold method. A cytosolic selection was created, added to ImageJ Manager, and transferred to the background subtracted, nuclear-cleared red channel image. The cytosolic cargo signal (integrated density) was measured and normalized to the number of nuclei counted in each field. Particle analysis was performed as described in Example 13a, using the thresholded green channel to identify particles of interest by filtering by area and circularity and re-directing to the blue and red channel for absence of nuclear signal and eventual presence of disease-related cargo, respectively. The quantity or distribution of objects obtained from the particle analysis was obtained as described in Example 13a.

[5] = system: cardiomyocytic cell line derived from human ventricular heart tissue; experiment: Cell viability in cardiomyocyte compound screen (CellTiter-Glo); type: cell-based; settings: human, 24 h
Description: Cells were stained with Hoechst 34580, CellTracker Green/CellMask Green Actin and MitoTracker Deep Red to detect nuclear material, cytoplasm/F-actin, and mitochondria, respectively, and cultured in poly-L-lysine-coated 96-well glass bottom plates at 15,800 cells/cm^2 and allowed to adhere overnight. For the screening, a total of 100 randomly organized compounds (TargetMol) were divided in 5 groups. Each group included an untreated condition, a vehicular DMSO control, and a known high-gigasome producing condition to comparatively study gigasome production rates. As a cell death control group, 500 nM Staurosporine was added to induce apoptosis. Cultures were incubated for 24 hours under gigasome inducing conditions at concentrations ranging between 10 nM and 10,000 nM. […] Cells remaining in the 96-well plates were assessed for viability using CellTiter-Glo (Promega).

**Q.** For `CC(C)C[C@@H](C=O)NC(=O)[C@H](CC(C)C)NC(=O)[C@H](CC(C)C)NC(=O)OCc1ccccc1` [MG-132, reference compound] (Cbz-Leu-Leu-Leu-aldehyde), which “C-APP+ve particle intensity distribution (gigasome diameter and brightness)” value (neuronal cells [1]; compared to γ-secretase inhibitor and DMSO conditions (FIG. 6D)) is on record?
**A.** larger in diameter and brighter

**Q.** What about the “intracellular APP-CTF levels (C-APP immunoreactivity)” value (neuronal cells [1]; γ-secretase inhibitor 5 μM, MG-132 0.1 μM, alone or combined, 24 h, compared to DMSO) of the same compound?
**A.** does not increase

**Q.** What about the “gigasomes per 1000 cells” value (neuronal cells [2]; gigasomes harvested from cell culture media (FIG. 8E)) of the same compound?
**A.** approximately 4.5 per 1000 cells

**Q.** What about the “gigasomes per 1000 cells” value (neuronal cells [2]; plated live cells, Tau fibrils 50 nM 3 h, MG-132 0.1 μM 18-20 h (FIG. 8C)) of the same compound?
**A.** approximately 325 per 1000 cells

**Q.** What about the fold induction at 0.1 µM ([3]; Homo sapiens, 24 h, read-out: Fold Change of Gigasomes Produced vs. DMSO) of the same compound?
**A.** 1.5 to 1.75

**Q.** What about the “Number of Gigasomes Produced” value ([3]; neuronal cells, dose 100 nM, 24 hours) of the same compound?
**A.** 55-65

**Q.** What about the HuR cytosolic signal (neuronal cells [4]; 5 μM sodium arsenite, 0.2 μM MG-132, alone or combined, 24 h, compared to DMSO (FIG. 7B)) of the same compound?
**A.** increased

**Q.** And the “HuR+ve particle intensity distribution (gigasome diameter and brightness)” value (neuronal cells [4]; FIG. 7E)?
**A.** larger in diameter and brighter

**Q.** And the “HuR average intensity within gigasomes” value (neuronal cells [4]; compared to sodium arsenite alone and DMSO (FIG. 7D))?
**A.** higher

**Q.** And the Viability ([5]; 10 nM)?
**A.** 100%

**Q.** What about the Viability ([5]; 100 nM) of the same compound?
**A.** 50-75%
